Results reported in ChEMBL document CHEMBL4043256, “Discovery of N-substituted 7-azaindoles as PIM1 kinase inhibitors - Part I” (Bioorg Med Chem Lett, 2017).

Columns and labels:
[1] = molecular target: Serine/threonine-protein kinase pim-2 (Homo sapiens, UniProt Q9P1W9); experiment: Inhibition of PIM2 (unknown origin) assessed as reduction in full length human BAD phosphorylation at Ser112 residues by TR-FRET assay
[2] = molecular target: Serine/threonine-protein kinase pim-3 (Homo sapiens, UniProt Q86V86); experiment: Inhibition of PIM3 (unknown origin) assessed as reduction in full length human BAD phosphorylation at Ser112 residues by TR-FRET assay
[3] = molecular target: Cell division cycle 7-related protein kinase (Homo sapiens, UniProt O00311); experiment: Inhibition of CDC7 (unknown origin)
Cell division cycle 7-related protein kinase, sequence (O00311 whole entry): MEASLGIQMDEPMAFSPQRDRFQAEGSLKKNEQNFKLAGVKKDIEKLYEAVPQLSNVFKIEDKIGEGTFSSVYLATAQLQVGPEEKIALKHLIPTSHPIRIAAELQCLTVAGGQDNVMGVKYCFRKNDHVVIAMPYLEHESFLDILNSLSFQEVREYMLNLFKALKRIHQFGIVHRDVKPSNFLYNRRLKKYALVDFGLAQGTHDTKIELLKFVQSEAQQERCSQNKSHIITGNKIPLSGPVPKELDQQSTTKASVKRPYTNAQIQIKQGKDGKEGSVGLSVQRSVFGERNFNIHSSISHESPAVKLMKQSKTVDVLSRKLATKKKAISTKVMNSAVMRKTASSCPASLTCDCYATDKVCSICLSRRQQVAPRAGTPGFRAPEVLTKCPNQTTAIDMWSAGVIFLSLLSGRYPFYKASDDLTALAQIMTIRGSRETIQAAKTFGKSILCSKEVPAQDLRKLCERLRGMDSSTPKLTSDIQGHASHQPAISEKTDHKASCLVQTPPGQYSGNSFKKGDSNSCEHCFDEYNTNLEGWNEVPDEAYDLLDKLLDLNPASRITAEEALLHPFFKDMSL

[4] = molecular target: Cyclin-dependent kinase 9 (Homo sapiens, UniProt P50750)
Cyclin-dependent kinase 9, sequence (P50750 whole entry): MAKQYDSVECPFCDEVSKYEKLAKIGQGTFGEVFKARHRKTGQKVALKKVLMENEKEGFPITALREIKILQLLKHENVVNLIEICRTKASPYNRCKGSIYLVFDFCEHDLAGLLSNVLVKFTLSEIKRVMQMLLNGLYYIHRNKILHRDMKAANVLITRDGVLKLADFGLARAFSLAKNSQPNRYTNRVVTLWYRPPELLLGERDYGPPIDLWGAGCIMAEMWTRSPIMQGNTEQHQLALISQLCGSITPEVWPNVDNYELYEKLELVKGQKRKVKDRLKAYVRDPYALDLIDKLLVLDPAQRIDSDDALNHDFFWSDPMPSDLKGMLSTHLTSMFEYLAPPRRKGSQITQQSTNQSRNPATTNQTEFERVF

Serine/threonine-protein kinase pim-2, sequence (Q9P1W9 whole entry): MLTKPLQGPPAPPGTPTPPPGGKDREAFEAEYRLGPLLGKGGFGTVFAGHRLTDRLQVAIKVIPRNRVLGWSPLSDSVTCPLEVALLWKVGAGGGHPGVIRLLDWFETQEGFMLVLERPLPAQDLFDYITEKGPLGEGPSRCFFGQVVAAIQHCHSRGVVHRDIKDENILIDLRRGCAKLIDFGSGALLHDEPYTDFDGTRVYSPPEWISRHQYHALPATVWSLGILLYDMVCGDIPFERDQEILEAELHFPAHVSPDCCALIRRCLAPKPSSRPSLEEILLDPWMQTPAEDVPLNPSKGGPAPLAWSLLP

Structure (SMILES)	IC50 [1]	IC50 [2]	IC50 [3]	IC50 [4]
Cc1c(-c2ccc(N3CCNCC3)cc2)n(C)c2nc(C(N)=O)cc(Cl)c12	1270 nM	290 nM		
CN1CCC(NC(=O)c2ccc(-c3c(-c4ccc(N5CCN(C)CC5)cc4)n(C)c4nccc(Cl)c34)cc2)CC1	872 nM	492 nM		
Cn1c(-c2ccc(N3CCNCC3)cc2)c(-c2ccc(CO)cc2)c2c(Cl)ccnc21	13800 nM	10600 nM		
Clc1ccnc2[nH]c(-c3ccc(N4CCNCC4)cc3)cc12			40 nM	20 nM
CN(C)Cc1ccc(-c2c(-c3ccc(N4CCN(C)CC4)cc3)n(C)c3nccc(Cl)c23)cc1	3300 nM	1400 nM		
CN(C)Cc1ccc(-c2c(-c3ccc(N4CCNCC4)cc3)n(C)c3nc(C(N)=O)cc(Cl)c23)cc1	> 30000 nM			
CN1CCN(c2ccc(-c3cc4c(Cl)cc(C(N)=O)nc4n3C)cc2)CC1	> 30000 nM	400 nM		
